The target of this experiment is T1, Solute carrier family 2, facilitated glucose transporter member 3 (Homo sapiens, UniProt P11169).
T1 sequence (P11169 whole entry): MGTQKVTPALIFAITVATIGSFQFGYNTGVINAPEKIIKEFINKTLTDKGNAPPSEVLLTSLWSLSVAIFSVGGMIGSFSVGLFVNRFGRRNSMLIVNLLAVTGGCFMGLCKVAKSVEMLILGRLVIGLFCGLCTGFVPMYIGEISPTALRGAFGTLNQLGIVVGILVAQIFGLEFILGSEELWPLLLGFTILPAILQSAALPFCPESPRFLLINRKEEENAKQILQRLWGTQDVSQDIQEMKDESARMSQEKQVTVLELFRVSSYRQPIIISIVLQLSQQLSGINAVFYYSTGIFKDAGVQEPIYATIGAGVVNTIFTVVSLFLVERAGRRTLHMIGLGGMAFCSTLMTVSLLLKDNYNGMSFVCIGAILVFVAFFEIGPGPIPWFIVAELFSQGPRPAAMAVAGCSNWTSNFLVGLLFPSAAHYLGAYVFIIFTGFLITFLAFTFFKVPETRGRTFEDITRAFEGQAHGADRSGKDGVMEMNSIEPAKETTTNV
The experiment is described as follows: Inhibition of the Glucose Transporter (GLUT3, SLC2A3) as assessed by a FRET based flow cytometry assay using a genetically-encoded biosensor for measuring free glucose (FLII12Pglu-700uDelta6) in HEK293 JumpIN TRex SLC2A3 WT-OE cells (PubChem AID: 1794827). In kind it is functional, cell-based.

pIC50: −log10 of the molar value. A value given as a limit tells only on which side of the number the result lay.

The pIC50 is −log10 of the IC50, conventionally taken in molar units. The low end stands for a large IC50, the high end for a small IC50. With `O=C(Oc1cccc(F)c1OC(=O)c1cccc(O)c1)c1cccc(O)c1`, the negative-log IC50 (pIC50) was under 5.00.

Values taken from ChEMBL document CHEMBL5209580, “Flow cytometry transport assay for SLC2A3 using HEK293 JumpIN TRex SLC2A3 WT-OE cells” (2022).
